Data on four molecules can be found in ChEMBL document CHEMBL1158791, “Grayanane diterpenoids from the flowers of Rhododendron molle with cytotoxic activity against a Spodoptera frugiperda cell line” (J Nat Prod, 2005).

Converted amounts (≈) assume the structure as drawn.

This test is described as follows: Cytotoxicity against Spodoptera frugiperda Sf9 cells after 48 hrs. Type of test: functional, cell-based. The following applies: Sf9, 48 h.

In general, IC50 refers to the concentration needed to halve the response being measured. Turning to `C/C=C(\C)C(=O)O[C@H]1C[C@@H](OC(C)=O)[C@@]2(C(=O)OC)CO[C@H]3[C@@H](O)[C@@](C)([C@]45O[C@@]4(C)[C@@H]4C[C@H]5O[C@@H]5OC=C[C@@]54O)[C@H]4[C@]1(CO[C@]4(O)C(=O)OC)[C@@H]32` [AZADIRACHTIN A], the 50% inhibitory concentration (IC50) worked out at 20.3 µg/mL (≈ 28.2 µM).
Molecule `CC1(C)[C@H]2O[C@H]2[C@H]2[C@](C)(O)[C@@H]3CC[C@@H]4[C@H](O)[C@@]3(C[C@@H](O)[C@@]21O)C[C@@]4(C)O` [RHODOJAPONIN] showed an IC50 of 12.6 µg/mL (≈ 34.2 µM).
For the molecule `C=C1[C@@H]2[C@H](OC)[C@H](O)C(C)(C)[C@@]2(O)[C@H](O)C[C@]23C[C@@](C)(O)[C@H](CC[C@@H]12)[C@H]3O` [RHODOMOLIN A], the concentration for half-maximal inhibition (IC50) came to 37.8 µg/mL (≈ 98.8 µM).
On to `C=C1[C@@H]2[C@H](O)[C@H](O)C(C)(C)[C@@]2(O)[C@H](O)C[C@]23C[C@@](C)(O)[C@H](CC[C@@H]12)[C@H]3OC(C)=O` [RHODOMOLIN B], for which the IC50 was determined as 25.6 µg/mL (≈ 62.4 µM).
